How the values were obtained:
[1] = molecular target: T1, Adrenergic α1A (Homo sapiens, UniProt P35348); experiment: Aequorin agonist/antagonist assay, adrenergic α1A; type: cell-based; conditions: CHO-K1 mAeq, human receptor, antagonist mode; read-out: Activity (Antagonism: IC50), Adrenergic a1A
T1 construct: expressed in transfected cells; host or cells: CHO-K1 mAeq
Protocol: (§1) Receptor agonist/[…] assays were performed using 2-CF3-sergide. Table 1 summarizes the cell lines (CHO-K1/HEK293 transfected with relevant human receptor) and the assays performed to detect any agonist or antagonist activity.
(§2) Aequorin assays were conducted to monitor activity for 8′OH-2CF3-dihydroergotamine (8′OH-2CF3-DHE) against the receptors indicated in Table 1 above (except for mGlu3 and mGlu5). CHO-K1 cells coexpressing mitochondrial apoaequorin and the recombinant human receptor of interest were grown to mid-log phase in culture media without antibiotics and then detached with PBS-EDTA, centrifuged and resuspended in assay buffer (DMEM/HAM's F12 with HEPES, without phenol red+0.1% BSA, protease free) at a concentration of 1×10^6 cell/mL. […]
(§3) 50 μL of the cell suspension was mixed with 50 μL of test or reference agonist in a 96-well plate. The resulting emission of light was recorded using Hamamatsu Functional Drug Screening System 6000 (FDSS 6000) luminometer. […]
(§4) To standardize the emission of recorded light (and determine of the “100% signal”) across plates and across different experiments, some wells contained 100 μM digitonin or a saturating concentration of ATP (20 μM).

[2] = molecular target: T2, Adrenergic α1B (Homo sapiens, UniProt P35368); experiment: Aequorin agonist/antagonist assay, adrenergic α1B; type: cell-based; conditions: CHO-K1 mAeq, human receptor, antagonist mode; read-out: Activity (Antagonism: IC50), Adrenergic a1B
T2 construct: expressed in transfected cells; host or cells: CHO-K1 mAeq
Protocol: as §1, §2, §3, §4

[3] = molecular target: T3, Adrenergic α1D (Homo sapiens, UniProt P25100); experiment: Aequorin agonist/antagonist assay, adrenergic α1D; type: cell-based; conditions: CHO-K1 mAeq, human receptor, antagonist mode; read-out: Activity (Antagonism: IC50), Adrenergic a1D
T3 construct: expressed in transfected cells; host or cells: CHO-K1 mAeq
T3 sequence (P25100 whole entry): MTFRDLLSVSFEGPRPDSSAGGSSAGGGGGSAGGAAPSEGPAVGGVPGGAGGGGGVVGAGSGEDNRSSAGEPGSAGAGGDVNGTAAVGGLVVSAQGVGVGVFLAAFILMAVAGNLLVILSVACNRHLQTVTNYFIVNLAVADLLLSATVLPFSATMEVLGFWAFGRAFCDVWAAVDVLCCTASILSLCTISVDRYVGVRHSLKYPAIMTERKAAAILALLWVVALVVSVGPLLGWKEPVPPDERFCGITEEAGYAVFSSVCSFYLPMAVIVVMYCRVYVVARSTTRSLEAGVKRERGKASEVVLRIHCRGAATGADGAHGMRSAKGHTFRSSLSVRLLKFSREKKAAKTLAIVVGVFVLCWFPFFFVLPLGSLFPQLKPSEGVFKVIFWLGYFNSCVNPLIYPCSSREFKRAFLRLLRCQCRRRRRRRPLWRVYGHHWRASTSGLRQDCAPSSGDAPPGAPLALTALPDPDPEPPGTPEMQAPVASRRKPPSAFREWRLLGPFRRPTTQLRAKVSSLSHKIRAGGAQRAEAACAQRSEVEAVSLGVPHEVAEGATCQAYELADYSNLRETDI
Protocol: as §1, §2, §3, §4

[4] = molecular target: T4, Adrenergic α2A (Homo sapiens, UniProt P08913); experiment: GTPγ[35S] assay, adrenergic α2A; type: biochemical; conditions: CHO-K1 human receptor membranes, antagonist mode; read-out: Activity (Antagonism: IC50), Adrenergic a2A
T4 construct: expressed in transfected cells; host or cells: CHO-K1 (membrane extracts)
Protocol: as §1
(§5) GTPγS studies were conducted to monitor agonist activity for 8′OH-2CF3-dihydroergotamine (8′OH-2CF3-DHE) against the receptors indicated in Table 1 above. Reagents used were the following: Assay buffer (20 mM HEPES, pH 7.4; 100 mM NaCl; 10 μg/mL saponin; 30 mM MgCl2); Membranes (recombinant human receptor membrane extracts were thawed on ice and diluted in assay buffer to give 1000 μg/mL ([…]) and kept on ice); GDP (diluted in assay buffer to give 30 μM solution (3 μM final concentration); beads (PVT-WGA (Amersham, RPNQ001), diluted in assay buffer at 25 mg/mL (0.25 mg/10 μL)); GTPγ^35S (Perkin Elmer, NEG030X), diluted in assay buffer to give 0.1 nM (final concentration); and ligand (agonist/antagonist diluted in assay buffer).
(§6) Membranes were mixed with GDP (1:1) and incubated for at least 15 minutes on ice. In parallel GTPγ^35S was mixed with the beads (1:1) just before starting the reaction. […] The plates were then centrifuged for 10 minutes at 2000 rpm and incubated at room temperature for 1 hour and counted for 1 min/well with a Perkin Elmer TopCount reader.

[5] = molecular target: T5, Adrenergic α2B (Homo sapiens, UniProt P18089); experiment: GTPγ[35S] assay, adrenergic α2B; type: biochemical; conditions: CHO-K1 human receptor membranes, antagonist mode; read-out: Activity (Antagonism: IC50), Adrenergic a2B
T5 construct: expressed in transfected cells; host or cells: CHO-K1 (membrane extracts)
Protocol: as §1, §5, §6

[6] = molecular target: T6, Adrenergic α2C (Homo sapiens, UniProt P18825); experiment: GTPγ[35S] assay, adrenergic α2C; type: biochemical; conditions: CHO-K1 human receptor membranes, antagonist mode; read-out: Activity (Antagonism: IC50), Adrenergic a2C
T6 construct: expressed in transfected cells; host or cells: CHO-K1 (membrane extracts)
T6 sequence (P18825 whole entry): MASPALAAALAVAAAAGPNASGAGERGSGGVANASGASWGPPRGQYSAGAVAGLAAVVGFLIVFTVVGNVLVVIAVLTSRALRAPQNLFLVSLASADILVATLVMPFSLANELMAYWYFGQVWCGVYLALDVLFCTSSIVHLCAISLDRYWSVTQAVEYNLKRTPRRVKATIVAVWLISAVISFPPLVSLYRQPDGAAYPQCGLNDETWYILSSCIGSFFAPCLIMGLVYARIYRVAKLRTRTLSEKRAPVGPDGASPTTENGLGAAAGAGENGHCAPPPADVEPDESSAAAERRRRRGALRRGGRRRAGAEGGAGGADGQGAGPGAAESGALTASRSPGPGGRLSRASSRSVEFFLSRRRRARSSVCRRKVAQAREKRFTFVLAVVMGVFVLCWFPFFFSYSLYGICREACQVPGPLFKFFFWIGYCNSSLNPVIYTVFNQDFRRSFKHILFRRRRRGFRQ
Protocol: as §1, §5, §6

[7] = molecular target: T7, Dopamine D1 (Homo sapiens, UniProt P21728); experiment: cAMP HTRF assay, dopamine D1; type: cell-based; conditions: CHO-K1, human receptor, agonist mode; read-out: Activity (Agonism: EC50), D1
T7 construct: expressed in transfected cells; host or cells: CHO-K1
Protocol: as §1
(§7) cAMP HTRF (Gs) studies were conducted to monitor activity for 8′OH-2CF3-dihydroergotamine (8′OH-2CF3-DHE) against the receptors indicated in Table 1 above. […] Lysis buffer was added and after a 1 hour incubation, cAMP concentrations was determined according to the manufacturer specification with the HTRF kit. […] Lysis buffer was added and after a 1 hour incubation, cAMP concentrations were determined according to the manufacturer specification, with the HTRF kit.
as §7, with “(Gi)” for “(Gs)”

[8] = molecular target: T8, Dopamine D2L (Homo sapiens, UniProt P14416); experiment: GTPγ[35S] assay, dopamine D2L; type: biochemical
T8 construct: expressed in transfected cells; host or cells: CHO-K1 (membrane extracts)
T8 sequence (P14416 whole entry): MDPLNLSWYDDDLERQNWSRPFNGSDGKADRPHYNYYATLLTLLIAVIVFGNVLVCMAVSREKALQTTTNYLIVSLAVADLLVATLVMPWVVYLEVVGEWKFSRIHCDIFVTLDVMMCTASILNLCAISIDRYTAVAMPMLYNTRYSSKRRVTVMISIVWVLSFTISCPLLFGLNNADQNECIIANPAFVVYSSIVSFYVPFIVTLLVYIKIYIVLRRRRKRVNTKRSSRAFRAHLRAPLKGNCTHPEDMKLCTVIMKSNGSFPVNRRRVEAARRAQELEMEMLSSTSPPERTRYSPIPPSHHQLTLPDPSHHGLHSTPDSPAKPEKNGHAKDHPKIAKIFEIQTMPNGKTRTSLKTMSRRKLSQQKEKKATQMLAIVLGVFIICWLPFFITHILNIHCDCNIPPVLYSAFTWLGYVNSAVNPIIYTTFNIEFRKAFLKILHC
Protocol: as §1, §5, §6

[9] = molecular target: T9, Dopamine D3 (Homo sapiens, UniProt P35462); experiment: GTPγ[35S] assay, dopamine D3; type: biochemical
T9 construct: expressed in transfected cells; host or cells: CHO-K1 (membrane extracts)
T9 sequence (P35462 whole entry): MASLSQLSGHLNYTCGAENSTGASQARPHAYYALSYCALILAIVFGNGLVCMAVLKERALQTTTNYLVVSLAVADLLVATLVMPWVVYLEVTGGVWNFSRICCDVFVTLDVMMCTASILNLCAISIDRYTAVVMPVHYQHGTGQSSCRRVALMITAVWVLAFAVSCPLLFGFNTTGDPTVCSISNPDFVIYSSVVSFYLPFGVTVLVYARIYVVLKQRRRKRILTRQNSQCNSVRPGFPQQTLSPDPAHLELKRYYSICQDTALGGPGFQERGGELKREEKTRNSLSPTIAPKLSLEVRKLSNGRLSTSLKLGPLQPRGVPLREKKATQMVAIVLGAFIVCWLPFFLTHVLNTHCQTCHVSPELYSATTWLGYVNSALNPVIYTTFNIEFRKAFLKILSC
Protocol: as §1, §5, §6

[10] = molecular target: T10, Dopamine D4 (Homo sapiens, UniProt P21917); experiment: GTPγ[35S] assay, dopamine D4; type: biochemical
T10 construct: expressed in transfected cells; host or cells: CHO-K1 (membrane extracts)
T10 sequence (P21917 whole entry): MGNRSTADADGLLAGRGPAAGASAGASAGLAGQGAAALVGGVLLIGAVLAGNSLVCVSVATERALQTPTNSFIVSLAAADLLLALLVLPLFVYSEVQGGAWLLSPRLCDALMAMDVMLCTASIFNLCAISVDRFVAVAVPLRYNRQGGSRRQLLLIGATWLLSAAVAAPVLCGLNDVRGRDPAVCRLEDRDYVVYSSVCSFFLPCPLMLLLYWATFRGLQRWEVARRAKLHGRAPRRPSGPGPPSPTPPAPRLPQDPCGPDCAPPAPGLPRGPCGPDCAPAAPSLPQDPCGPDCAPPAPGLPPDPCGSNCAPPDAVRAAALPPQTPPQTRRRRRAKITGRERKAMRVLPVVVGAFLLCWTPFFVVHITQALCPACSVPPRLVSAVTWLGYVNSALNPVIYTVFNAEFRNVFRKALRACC
Protocol: as §1, §5, §6

[11] = molecular target: T11, Serotonin 5-HT1A (Homo sapiens, UniProt P08908); experiment: GTPγ[35S] assay, serotonin 5-HT1A; type: biochemical
T11 construct: expressed in transfected cells; host or cells: CHO-K1 (membrane extracts)
T11 sequence (P08908 whole entry): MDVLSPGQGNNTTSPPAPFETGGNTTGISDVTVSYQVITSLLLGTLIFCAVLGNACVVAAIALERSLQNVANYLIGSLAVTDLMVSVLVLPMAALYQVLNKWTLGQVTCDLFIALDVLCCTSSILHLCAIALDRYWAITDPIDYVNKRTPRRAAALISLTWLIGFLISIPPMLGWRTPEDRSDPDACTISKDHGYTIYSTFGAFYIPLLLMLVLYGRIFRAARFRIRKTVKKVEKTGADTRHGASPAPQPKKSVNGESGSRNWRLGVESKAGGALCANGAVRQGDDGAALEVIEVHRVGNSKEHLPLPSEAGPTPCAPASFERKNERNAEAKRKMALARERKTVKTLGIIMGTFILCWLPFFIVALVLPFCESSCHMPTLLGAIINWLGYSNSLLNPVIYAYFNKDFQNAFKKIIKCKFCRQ
Protocol: as §1, §5, §6

[12] = molecular target: T12, Serotonin 5-HT1B (Homo sapiens, UniProt P28222); experiment: GTPγ[35S] assay, serotonin 5-HT1B; type: biochemical; conditions: CHO-K1 human receptor membranes, agonist mode; read-out: Activity (Agonism: EC50), 5-HT1B
T12 construct: expressed in transfected cells; host or cells: CHO-K1 (membrane extracts)
Protocol: as §1, §5, §6

[13] = molecular target: T13, Serotonin 5-HT1D (Homo sapiens, UniProt P28221); experiment: GTPγ[35S] assay, serotonin 5-HT1D; type: biochemical; conditions: CHO-K1 human receptor membranes, agonist mode; read-out: Activity (Agonism: EC50), 5-HT1D
T13 construct: expressed in transfected cells; host or cells: CHO-K1 (membrane extracts)
T13 sequence (P28221 whole entry): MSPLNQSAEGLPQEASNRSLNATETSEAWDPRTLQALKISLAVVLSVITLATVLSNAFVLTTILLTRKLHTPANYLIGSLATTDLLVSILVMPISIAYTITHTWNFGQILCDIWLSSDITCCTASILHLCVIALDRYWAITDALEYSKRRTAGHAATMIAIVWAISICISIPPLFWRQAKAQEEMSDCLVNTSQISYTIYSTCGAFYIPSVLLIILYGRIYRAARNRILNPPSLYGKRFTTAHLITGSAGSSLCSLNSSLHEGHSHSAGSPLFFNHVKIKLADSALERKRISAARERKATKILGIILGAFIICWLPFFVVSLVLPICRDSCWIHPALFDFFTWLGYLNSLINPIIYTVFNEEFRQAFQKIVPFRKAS
Protocol: as §1, §5, §6

[14] = molecular target: T14, Serotonin 5-HT1F (Homo sapiens, UniProt P30939); experiment: cAMP HTRF assay, serotonin 5-HT1F; type: cell-based; conditions: CHO-K1, human receptor, agonist mode; read-out: Activity (Agonism: EC50), 5-HT1F
T14 construct: expressed in transfected cells; host or cells: CHO-K1
Protocol: as §1, §7
as §7, with “(Gi)” for “(Gs)”

[15] = molecular target: T15, Serotonin 5-HT2A (Homo sapiens, UniProt P28223); experiment: Aequorin assay, serotonin 5-HT2A; type: cell-based; conditions: CHO-K1 mAeq Gα16, human receptor, agonist mode; read-out: Activity (Agonism: EC50), 5-HT2A
T15 construct: expressed in transfected cells; host or cells: CHO-K1 mAeq Gα16
T15 sequence (P28223 whole entry): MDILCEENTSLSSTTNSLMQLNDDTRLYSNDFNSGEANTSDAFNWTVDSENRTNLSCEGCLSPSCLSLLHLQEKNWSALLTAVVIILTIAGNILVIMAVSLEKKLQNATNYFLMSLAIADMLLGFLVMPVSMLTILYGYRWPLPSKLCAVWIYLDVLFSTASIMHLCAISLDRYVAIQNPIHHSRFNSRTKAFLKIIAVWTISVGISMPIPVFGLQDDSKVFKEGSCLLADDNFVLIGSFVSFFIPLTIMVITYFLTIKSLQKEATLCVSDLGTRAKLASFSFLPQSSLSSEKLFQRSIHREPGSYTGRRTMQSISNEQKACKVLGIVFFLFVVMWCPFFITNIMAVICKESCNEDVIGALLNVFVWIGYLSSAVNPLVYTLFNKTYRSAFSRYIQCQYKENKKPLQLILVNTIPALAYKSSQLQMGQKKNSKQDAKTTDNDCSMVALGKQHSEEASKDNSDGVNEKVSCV
Protocol: as §1, §2, §3, §4

[16] = molecular target: T16, Serotonin 5-HT2B (Homo sapiens, UniProt P41595); experiment: Aequorin assay, serotonin 5-HT2B; type: cell-based
T16 construct: expressed in transfected cells; host or cells: CHO-K1 mAeq Gα16
T16 sequence (P41595 whole entry): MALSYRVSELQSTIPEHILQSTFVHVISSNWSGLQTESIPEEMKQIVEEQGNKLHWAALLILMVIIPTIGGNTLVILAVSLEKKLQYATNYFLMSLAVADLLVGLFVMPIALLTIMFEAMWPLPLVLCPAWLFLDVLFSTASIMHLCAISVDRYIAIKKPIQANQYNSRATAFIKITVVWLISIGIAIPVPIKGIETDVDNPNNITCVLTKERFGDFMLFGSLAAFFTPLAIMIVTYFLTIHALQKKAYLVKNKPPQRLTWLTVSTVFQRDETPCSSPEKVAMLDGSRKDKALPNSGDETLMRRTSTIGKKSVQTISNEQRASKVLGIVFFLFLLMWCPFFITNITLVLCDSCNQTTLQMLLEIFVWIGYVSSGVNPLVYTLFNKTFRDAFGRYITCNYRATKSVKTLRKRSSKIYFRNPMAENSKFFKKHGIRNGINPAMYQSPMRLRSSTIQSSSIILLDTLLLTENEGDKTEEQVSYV
Protocol: as §1, §2, §3, §4

[17] = molecular target: T17, Serotonin 5-HT3 (Homo sapiens, UniProt P46098); experiment: Aequorin assay, serotonin 5-HT3; type: cell-based; conditions: HEK-293 mAeq, human receptor, antagonist mode; read-out: Activity (Antagonism: IC50), 5-HT3
T17 construct: expressed in transfected cells; host or cells: HEK-293 mAeq
Protocol: as §1, §2, §3, §4

[18] = molecular target: T18, mGlu7 (Homo sapiens, UniProt Q14831); experiment: cAMP HTRF assay, mGluR7; type: cell-based; conditions: CHO-K1, human receptor, agonist mode; read-out: Activity (Agonism: EC50), mGlu7
T18 construct: expressed in transfected cells; host or cells: CHO-K1
T18 sequence (Q14831 35-915): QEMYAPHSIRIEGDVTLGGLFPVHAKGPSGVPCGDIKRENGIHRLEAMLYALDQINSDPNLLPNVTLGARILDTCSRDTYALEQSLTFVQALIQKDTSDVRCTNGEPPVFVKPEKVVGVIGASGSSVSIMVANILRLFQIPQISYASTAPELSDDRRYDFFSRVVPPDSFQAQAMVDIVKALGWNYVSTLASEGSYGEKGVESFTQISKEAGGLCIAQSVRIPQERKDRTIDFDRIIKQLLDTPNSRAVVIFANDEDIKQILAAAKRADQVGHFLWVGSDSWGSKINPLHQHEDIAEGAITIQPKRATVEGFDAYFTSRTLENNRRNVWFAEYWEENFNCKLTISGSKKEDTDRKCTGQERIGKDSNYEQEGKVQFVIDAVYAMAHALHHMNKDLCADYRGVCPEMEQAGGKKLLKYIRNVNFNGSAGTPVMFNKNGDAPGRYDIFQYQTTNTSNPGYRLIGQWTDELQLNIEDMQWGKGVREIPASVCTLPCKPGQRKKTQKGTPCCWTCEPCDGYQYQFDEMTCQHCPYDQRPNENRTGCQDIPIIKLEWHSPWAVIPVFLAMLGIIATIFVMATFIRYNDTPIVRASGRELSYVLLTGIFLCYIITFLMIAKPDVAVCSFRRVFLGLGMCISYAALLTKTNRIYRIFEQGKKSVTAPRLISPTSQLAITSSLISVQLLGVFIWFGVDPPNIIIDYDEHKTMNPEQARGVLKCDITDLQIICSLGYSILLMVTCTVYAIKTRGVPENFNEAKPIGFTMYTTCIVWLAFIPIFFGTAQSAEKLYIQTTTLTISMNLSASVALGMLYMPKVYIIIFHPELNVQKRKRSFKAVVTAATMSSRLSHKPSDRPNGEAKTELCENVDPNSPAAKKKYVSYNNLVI
Protocol: as §1, §7
as §7, with “(Gi)” for “(Gs)”

[19] = tested on: VIP/PACAP (PAC1/VPAC/VPAC2); experiment: Aequorin assays, VIP/PACAP receptors; type: cell-based; conditions: CHO-AEQ, human receptors
Protocol: as §1, §2, §3, §4

[20] = tested on: Cholecystokinin (CCK1/CCK2); experiment: Aequorin assays, cholecystokinin receptors; type: cell-based; conditions: CHO-AEQ, human receptors
Protocol: as §1, §2, §3, §4

[21] = tested on: Somatostatin (SST1~SSTS); experiment: GTPγ[35S] assays, somatostatin receptors; type: biochemical; conditions: CHO-K1 human receptor membranes
Protocol: as §1, §5, §6

[22] = tested on: Calcitonin (AM1/AM2); experiment: cAMP HTRF assays, calcitonin AM1/AM2 receptors; type: cell-based; conditions: CHO-K1, human receptors
Protocol: as §1, §7
as §7, with “(Gi)” for “(Gs)”

[23] = tested on: Opioid (OP1/OP2/OP3); experiment: GTPγ[35S] assays, opioid receptors; type: biochemical; conditions: CHO-K1 human receptor membranes
Protocol: as §1, §5, §6

[24] = molecular target: T19, Calcitonin (CGRP) (Homo sapiens, UniProt O60894+Q16602); experiment: Aequorin assay, CGRP receptor; type: cell-based; conditions: CHO-AEQ
T19 construct: expressed in transfected cells; host or cells: CHO-AEQ
Protocol: as §1, §2, §3, §4

[25] = tested on: Orexin (OX1/OX2); experiment: Aequorin assays, orexin receptors; type: cell-based; conditions: CHO-AEQ, human receptors
Protocol: as §1, §2, §3, §4

[26] = tested on: Neurokinin (NK1/NK2/NK3); experiment: Aequorin assays, neurokinin receptors; type: cell-based; conditions: CHO-AEQ, human receptors, antagonist mode; cell names OP2; read-out: Activity (Antagonism: IC50), OP2, in row Neurokinin (NK1/NK2/NK3)
Protocol: as §1, §2, §3, §4

[27] = molecular target: T20, Adenosine A2a (Homo sapiens, UniProt P29274); experiment: cAMP HTRF assay, adenosine A2a; type: cell-based; conditions: HEK293, human receptor
T20 construct: expressed in transfected cells
Protocol: as §1, §7
as §7, with “(Gi)” for “(Gs)”

## CC[C@@H](CO)NC(=O)[C@@H]1C=C2c3cccc4[nH]c(C(F)(F)F)c(c34)C[C@H]2N(C)C1 [2-CF3-sergide]
[1]
  IC50: > 10000 nM
[2]
  IC50: > 1000 nM
[3]
  IC50: 38 nM
[4]
  IC50: > 10000 nM
[5]
  IC50: > 1000 nM
[6]
  IC50: > 10000 nM
[7]
  EC50: 257 nM
[8]; CHO-K1 human receptor membranes, antagonist mode, read-out: Activity (Antagonism: IC50), D2L
  IC50: > 1000 nM
[8]; summary of Table 2
  Receptor activity at the D2L dopaminergic receptor (in words): receptor antagonism
[9]; CHO-K1 human receptor membranes, antagonist mode, read-out: Activity (Antagonism: IC50), D3
  IC50: > 1000 nM
[9]; summary of Table 2
  Receptor activity at the D3 dopaminergic receptor (in words): receptor antagonism
[10]; CHO-K1 human receptor membranes, antagonist mode, read-out: Activity (Antagonism: IC50), D4
  IC50: > 1000 nM
[10]; summary of Table 2
  Receptor activity at the D4 dopaminergic receptor (in words): receptor antagonism
[11]; CHO-K1 human receptor membranes, agonist mode, read-out: Activity (Agonism: EC50), 5-HT1A
  EC50: 258 nM
[11]; summary of Table 2
  Receptor activity on the 5-HT1A receptor (in words): agonistic activity
[12]
  EC50: 128 nM
[13]
  EC50: 98 nM
[14]
  EC50: 254 nM
[15]
  EC50: 1100 nM
[16]; CHO-K1 mAeq Gα16, human receptor, antagonist mode, read-out: Activity (Antagonism: IC50), 5-HT2B
  IC50: 42 nM
[16]; summary of Table 2
  Receptor activity at the 5-HT2B receptor (in words): full receptor antagonism
[17]
  IC50: > 1000 nM
[18]
  EC50: 46.5 nM
[19]
  Activity (Agonism: EC50; Antagonism: IC50), VIP/PACAP (PAC1/VPAC/VPAC2): Inactive
[20]
  Activity (Agonism: EC50; Antagonism: IC50), Cholecystokinin (CCK1/CCK2): Inactive
[21]
  Activity (Agonism: EC50; Antagonism: IC50), Somatostatin (SST1~SSTS): Inactive
[22]
  Activity (Agonism: EC50; Antagonism: IC50), Calcitonin (AM1/AM2): Inactive
[23]
  Activity (Agonism: EC50; Antagonism: IC50), Opioid (OP1/OP2/OP3): Inactive
[24]
  Activity (Agonism: EC50; Antagonism: IC50), Calcitonin (CGRP): Inactive
[25]
  Activity (Agonism: EC50; Antagonism: IC50), Orexin (OX1/OX2): Inactive
[26]
  IC50: > 1000 nM
[27]
  Activity (Agonism: EC50; Antagonism: IC50), Adenosine A2a: Inactive

Reference: patent US8895743B2, “Methysergide derivatives” (Map Pharmaceuticals, Inc., priority 2012, dated 2014)
